Earlier results in patent publication US4196187A, “Rumen-stable pellets” (Eastman Kodak Company, priority 1977, dated 1980).

Experiments:
[1] = Example 1

| Solubility g./100 g. water at 25° C. | soluble to the extent of (25° C., water) | acidity of a saturated solution (pH) [1] | Structure (SMILES) |
| --- | --- | --- | --- |
| 4.0 g./100 g. water |  |  | CSCCC(N)C(=O)O (racemic) [DL - Methionone] |
|  | about 70 g./100 g. of water | 5.5 | Cl.NCCCC[C@H](N)C(=O)O [L-Lysine monohydrochloride] |
